Laboratory results from US10183955B2, “Molecules for isolation of polyribosomes, ribosomes, uses and kits thereof” (Immagina Biotechnology S.r.l., priority 2015, dated 2019).

What was measured:
IVTT euk-mix = test: EGFP expression in IVTT euk-mix, Western blot; format: biochemical; details: 1 hour, 30° C., 2 μg plasmid, 50 μL IVTT euk-mix
Method: FIG. 10. Expression of the firefly luciferase and the Enhanced Green Fluorescent Protein (EGFP) in the presence of 3P. (a, top), Effect of 3P on luciferase protein expression. ε-Labeled biotinylated lysine-tRNAs is used to monitor the protein production by SDS-PAGE. (a, bottom), Histogram representing the relative quantification (density fold change) of the bands reported in the western blot (up), respect to the control (input, reaction mix without 3P). Reactions are carried out in a final volume of 50 μL of IVTT euk-mix. Error bars represent s.d. calculated from a duplicate experiment; (b, top-left), Scheme of the plasmid used for EGFP expression. Restriction sites used to clone the gene are reported. (b, top-right) The effect of 3P on EGFP expression monitored by Western Blot analysis. Reactions are performed in a final volume of 50 μL of IVTT euk-mix (up) or IVTT pro-mix (down). (b, bottom). Effect of 3P and 3PP on EGFP expression in a IVTT euk-mix.
FIG. 15. Isolation of actively translated GFP transcripts after in vitro expression of EGFP protein. (a, left) The two plasmids used for EGFP expression (pBluescript II KS+, Genscript; pPR-IBA2, IBA, #2-1391-000). […] The relative abundance is reported as 2^(39-Cq), where 39 are the number of cycles and Cq is the quantification cycle. […]

[1] = system: in vitro-cell free translation system (IVTT euk-mix); test: In vitro cell-free expression of firefly luciferase (IVTT euk-mix), SDS-PAGE and luminescence; format: biochemical
Method: FIG. 9. Effect of 3P and puromycin on in vitro-cell free expression of the luciferase gene. Luciferase protein production in the presence of different concentrations of puromycin and 3P (left panel). The firefly luciferase is expressed in vitro (90 min) adding z-labeled biotinylated lysine-tRNAs to the reaction. After incubation with streptavidin-HRP, the protein is visualized by chemiluminescence.
To date, no structural data are available for puromycin binding in complex with the eukaryotic ribosome, while the bonding of a puromycin derivative in bacterial ribosome is well described^49. […] In particular, we tested the effect of 3P on an in vitro-cell free translation system (hereinafter called “IVTT euk-mix”: TNT Quick coupled Transcription/Translation System, Promega #L2881) using a firefly luciferase gene (Promega #L4741). […] After 90 minutes of incubation, we monitored the protein production by SDS-PAGE and luminescence assay (FIG. 9). […]
The luciferase translation efficiency was monitored by means of luminescence signal using the Bright-Glo™ Luciferase Assay System (Promega, E2610) and the Infinite 200 PRO reader (Tecan), according to the manufacturer's instruction. […]

SMILES | effect on EGFP expression (free in solution) (IVTT euk-mix) | b of best fit y=A*exp(−x/b) of luciferase expression as a function of concentration (A=100) ([1]; concentrations 0, 0.01, 0.1, 1, 10 μM, n=3) | protein synthesis upon titration ([1]; firefly luciferase, 90 minutes, 0-10 μM)
COC(=O)C[C@](O)(CCC(C)(C)O)C(=O)O[C@@H]1C(OC)=C[C@]23CCCN2CCc2cc4c(cc2[C@H]13)OCO4 [harringtonine] | inhibitory effect | – | –
COc1ccc(C[C@H](N)C(=O)N[C@H]2[C@@H](O)[C@H](n3cnc4c(N(C)C)ncnc43)O[C@@H]2CO)cc1 [puromycin] | – | 0.020±0.003 | exponential decay of the protein synthesis
